Data reported in the NIST ThermoML archive (doi:10.1016/j.jct.2012.11.005).
± gives the expanded uncertainty stated by the source.

Columns and labels:
[1] = 101.33 kPa, Liquid, Vibrating tube method
[2] = refractive index (Na D-line) (dimensionless); conditions: 293.15 K; 101.33 kPa; Liquid; Standard Abbe refractometry
[3] = Boiling temperature at pressure P; conditions: Liquid, Closed cell (Static) method

CCCCO [butan-1-ol]
mass density ([1]; 298.15 K): 805.851 ± 0.16 kg/m3
refractive index [2]: 1.39705 ± 0.0007

C1CCCCC1 [cyclohexane]
mass density ([1]; 293.15 K): 778.414 ± 0.61 kg/m3
refractive index [2]: 1.42655 ± 0.0008

CC(C)OC(C)C [diisopropyl ether]
mass density ([1]; 298.15 K): 718.511 ± 0.25 kg/m3
refractive index [2]: 1.36547 ± 0.00072

CCO [ethanol]
mass density ([1]; 298.15 K): 784.89 ± 0.16 kg/m3
Boiling temperature at pressure P ([3]; 17.99 kPa): 40.00 ± 0.51 °C
Boiling temperature at pressure P ([3]; 20 kPa): 42.23 ± 0.51 °C
Boiling temperature at pressure P ([3]; 29.6 kPa): 50.00 ± 0.45 °C
Boiling temperature at pressure P ([3]; 40 kPa): 56.49 ± 0.43 °C
Boiling temperature at pressure P ([3]; 47.01 kPa): 60.00 ± 0.43 °C
Boiling temperature at pressure P ([3]; 49.99 kPa): 61.37 ± 0.42 °C
Boiling temperature at pressure P ([3]; 59.93 kPa): 65.51 ± 0.42 °C
Boiling temperature at pressure P ([3]; 69.95 kPa): 69.13 ± 0.41 °C
Boiling temperature at pressure P ([3]; 79.91 kPa): 72.33 ± 0.41 °C
Boiling temperature at pressure P ([3]; 89.92 kPa): 75.16 ± 0.41 °C
Boiling temperature at pressure P ([3]; 100.07 kPa): 77.90 ± 0.41 °C
refractive index [2]: 1.35929 ± 0.0007

CO [methanol]
mass density ([1]; 298.15 K): 786.624 ± 0.16 kg/m3
Boiling temperature at pressure P ([3]; 19.97 kPa): 28.22 ± 0.48 °C
Boiling temperature at pressure P ([3]; 24.04 kPa): 32.00 ± 0.46 °C
Boiling temperature at pressure P ([3]; 29.98 kPa): 36.41 ± 0.44 °C
Boiling temperature at pressure P ([3]; 39.04 kPa): 42.00 ± 0.43 °C
Boiling temperature at pressure P ([3]; 50.01 kPa): 47.57 ± 0.42 °C
Boiling temperature at pressure P ([3]; 60.94 kPa): 52.00 ± 0.42 °C
Boiling temperature at pressure P ([3]; 69.96 kPa): 55.42 ± 0.41 °C
Boiling temperature at pressure P ([3]; 79.92 kPa): 58.59 ± 0.41 °C
Boiling temperature at pressure P ([3]; 89.99 kPa): 61.58 ± 0.41 °C
Boiling temperature at pressure P ([3]; 100 kPa): 64.18 ± 0.41 °C
refractive index [2]: 1.32643 ± 0.0007
